Experimental data published in patent US20260258048A1, “LACTAM-CONTAINING IMIDAZOPYRIDAZINE IL-17 INHIBITOR COMPOUNDS” (Janssen Pharmaceutica NV, priority 2023, published 2026).

Tests used:
[1] = tested on: IL-17A-induced G-CSF production in human normal keratinocyte (NHK); assay: NHK assay: IL-17A-induced G-CSF production in normal human keratinocytes; type: cell-based; settings: Homo sapiens, Keratinocyte, 24 h, IL-17A 5 ng/mL
Experimental: IL-17A acts directly on keratinocytes through binding to dimeric receptor IL-17RA/RC and drives the production of a number of inflammatory mediators known to be elevated in psoriasis lesional tissue. IL-17A small molecule inhibitors that block the IL-17A to interact with IL-17R would inhibit the IL-17A signaling in its targeted cells such as keratinocytes. The compound functional activity is evaluated for its impact on IL-17A-induced G-CSF production in human normal keratinocyte (NHK).
Adult normal human keratinocytes are cultured in keratinocyte growth medium (Lonza) in a flask till reaching ~90% confluence, then cells are transferred to a 384-well plate at density of 3000-4000 cell/well. Recombinant human IL-17A (Gibco PHC9174) is pre-incubated with titrated compound or DMSO for 1 h at rt then added to the cell culture plate. The final concentration of IL-17A is 5 ng/mL and DMSO is 0.2%, in the culture containing 5% FBS. Cells are cultured/treated for 24 h at 37° C. Supernatants are collected and G-CSF production is measured through HTRF technology using Human G-CSF Kit (CisBio). G-CSF concentration was extrapolated from the standard curve and IC50 is determined using GraphPad Prism. Cell viability is also evaluated using CellTiter-Glo kit (Promega) and effect of compound on cell viability is compared to DMSO control.

[2] = molecular target: IL-17A(FLAG-tagged): IL-17RA(His-tagged) (Homo sapiens, UniProt Q16552, K93Q); assay: IL-17A(FLAG-tagged): IL-17RA(His-tagged) binding disruption Eu-HTRF assay
Excerpt: IL-17A(FLAG-tagged): IL-17RA(His-tagged) binding disruption Eu-HTRF assay An antibody directed against the FLAG tag of IL-17A (SEQ ID NO: 1) is labeled with the HTRF donor chromophore (Europium-cryptate). IL-17A is present as a dimer that is “locked into” this quaternary structure due to the formation of loop-spanning intramolecular disulfide bridges. The construct of IL-17RA used in the assay excludes the […] portion of the receptor and is fused to a C-terminal 10×His tag (SEQ ID NO:2). An antibody directed against the His tag of the IL-17RA chimera is labeled with the HTRF acceptor chromophore (“D2”). The fluorescence-resonance energy transfer (FRET) depends on the vicinity of the donor chromophore to the acceptor, and interruption of the binding between the IL-17A and IL-17RA causes the reduction/loss of FRET. Therefore, this assay allows to evaluate the compound effect on the binding IL-17A and IL-17RA by monitoring the fluorescence intensity of donor vs acceptor. The assay is run as described below.
40 nl of 2-fold serial diluted compound solution for total 22 dilution points is added into each well of a 1536-well, white, low-volume, non-binding plate (Greiner #782904), then 2 μl of FLAG tagged IL-17A at 2× final concentration (1 μM) in solution of PBS+0.01% Triton-X100 is added to each well. The assay plate is briefly centrifuged then incubated for 1 h at rt. A mixed solution is prepared containing 2×5 nM 10HIS×IL-17RA, 2×2.5 nM Eu-anti-FLAG (CISBIO), 2×5 nM D2-anti-HIS (CISBIO) in PBS+0.01% Triton-X100+200 mM Potassium Fluoride (Sigma 60238) and 2 μl of mix is added to each well of the assay plate. The plate is briefly centrifuged then incubated for 2 h at rt. The HTRF intensities at the wavelength of donor (615 nm) and acceptor (665 nm) are measured using BMG Pherastar. The ratio between intensities at two wavelengths is calculated and plotted against the compound concentration and the data is fitted to a one-site competition model to yield IC50 of the compound.

[3] = class of the average IC50 where tested more than once

UniProt Q16552, sequence (Q16552 with tags, fused parts or gaps K93Q): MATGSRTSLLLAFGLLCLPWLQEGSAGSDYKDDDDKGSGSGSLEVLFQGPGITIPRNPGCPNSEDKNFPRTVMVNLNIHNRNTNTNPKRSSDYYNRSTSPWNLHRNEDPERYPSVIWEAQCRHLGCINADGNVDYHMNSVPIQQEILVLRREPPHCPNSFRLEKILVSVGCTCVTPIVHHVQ

SMILES | IC50 [1, 3] [µM] | IC50 [2, 3] [µM] | IC50 ([1]; value in brackets, Table 4) [µM] | IC50 ([2]; value in brackets, Table 4) [µM]
CC1(C)CNC(=O)C1Cc1cnn2cc([C@@H](NC(=O)c3nonc3C3CC3)C3CCC(F)(F)CC3)nc2c1 (single isomer, unassigned) [Example 15, 4-Cyclopropyl-N—[(S)-(4,4-difluorocyclohexyl)-[7-[[(3R*)-4,4-dimethyl-2-oxo-pyrrolidin-3-yl]methyl]imidazo[1,2-b]pyridazin-2-yl]methyl]-1,2,5-oxadiazole-3-carboxamide] | > 4 | > 4 |  | 
O=C(N[C@H](c1cn2ncc(CC3CCCCNC3=O)cc2n1)C1CCC(F)(F)CC1)c1nonc1C1CC1 (single isomer, unassigned) [Example 25, 4-Cyclopropyl-N—((S)-(4,4-difluorocyclohexyl(7-(((R*)-2-oxoazepan-3-yl)methyl)imidazo[1,2-b]pyridazin-2-yl)methyl)-1,2,5-oxadiazole-3-carboxamide] | > 4 | 0.4 to 4 |  | 
CC1(C)C[C@H](Cc2cnn3cc([C@@H](NC(=O)c4nonc4C4CC4)C4CCC(F)(F)CC4)nc3c2)C(=O)N1 (single isomer, unassigned) [Example 14] | > 4 | > 4 |  | 
O=C(N[C@H](c1cn2ncc(C[C@@H]3C(=O)NC[C@@H]3C(F)(F)F)cc2n1)C1CCC(F)(F)CC1)c1nonc1C1CC1 (relative stereo) [Example 49, 4-Cyclopropyl-N—((S)-(4,4-difluorocyclohexyl)(7-(((3S*,4R*)-2-oxo-4-(trifluoromethyl)pyrrolidin-3-yl)methyl)imidazo[1,2-b]pyridazin-2-yl)methyl)-1,2,5-oxadiazole-3-carboxamide] | > 4 | 0.4 to 4 |  | 
O=C(N[C@H](c1cn2ncc([C@H](O)[C@@H]3C[C@@H](C(F)(F)F)NC3=O)cc2n1)C1CCC(F)(F)CC1)c1nonc1C1CC1 (relative stereo) [Example 75, 4-Cyclopropyl-N—((S)-(4,4-difluorocyclohexyl)(7-((R*)-hydroxy((3S*,5S*)-2-oxo-5-(trifluoromethyl)pyrrolidin-3-yl)methyl)imidazo[1,2-b]pyridazin-2-yl)methyl)-1,2,5-oxadiazole-3-carboxamide] | < 0.4 | < 0.4 |  | 
CC(C)n1nccc1C(=O)N[C@H](c1cn2ncc(C[C@@H]3C[C@@H](C(F)(F)F)NC3=O)cc2n1)C1CCC(F)(F)CC1 [Example 52, N—((S)-(4,4-Difluorocyclohexyl)(7-(((3R,5S)-2-oxo-5-(trifluoromethyl)pyrrolidin-3-yl)methyl)imidazo[1,2-b]pyridazin-2-yl)methyl)-1-isopropyl-1H-pyrazole-5-carboxamide] | 0.4 to 4 | 0.4 to 4 | 2.83 | 2.45
CC[C@@H](c1cnn2cc([C@@H](NC(=O)c3nonc3C3CC3)C3CCC(F)(F)CC3)nc2c1)[C@@H]1C[C@@H](C(F)(F)F)NC1=O (single isomer, unassigned) [Example 19] | < 0.4 | < 0.4 |  | 
O=C(N[C@H](c1cn2ncc(C[C@]34CCC[C@@H](C3)NC4=O)cc2n1)C1CCC(F)(F)CC1)c1nonc1C1CC1 (relative stereo) [Example 12, 4-Cyclopropyl-N—[(S)-(4,4-difluorocyclohexyl)-[7-[[(1S*5S*)-7-oxo-6-azabicyclo[3.2.1]octan-1-yl]methyl]imidazo[1,2-b]pyridazin-2-yl]methyl]-1,2,5-oxadiazole-3-carboxamide] | 0.4 to 4 | > 4 |  | 
C[C@H](c1cnn2cc([C@@H](NC(=O)c3nonc3C3CC3)C3CCC(F)(F)CC3)nc2c1)[C@@H]1C[C@@H](C(F)(F)F)NC1=O (relative stereo) [Example 81, 4-Cyclopropyl-N—((S)-(4,4-difluorocyclohexyl)(7-((S*)-1-((3S*,5S)-2-oxo-5-(trifluoromethyl)pyrrolidin-3-yl)ethyl)imidazo[1,2-b]pyridazin-2-yl)methyl)-1,2,5-oxadiazole-3-carboxamide] | < 0.4 | < 0.4 |  | 
O=C(N[C@H](c1cn2ncc([C@@H]3C[C@@]34C[C@@H](C(F)(F)F)NC4=O)cc2n1)C1CCC(F)(F)CC1)c1nonc1C1CC1 (relative stereo) [Example 38, 4-Cyclopropyl-N—((S)-(4,4-difluorocyclohexyl)(7-((1S*,3R*,6S)-4-oxo-6-(trifluoromethyl)-5-azaspiro[2.4]heptan-1-yl)imidazo[1,2-b]pyridazin-2-yl)methyl)-1,2,5-oxadiazole-3-carboxamide] | 0.4 to 4 | < 0.4 |  | 
O=C(N[C@H](c1cn2ncc(CC3CCCNC3=O)cc2n1)C1CCC(F)(F)CC1)c1nonc1C1CC1 (single isomer, unassigned) [Example 24, 4-Cyclopropyl-N—[(S)-(4,4-difluorocyclohexyl)-[7-[[(3S*)-2-oxo-3-piperidyl]methyl]imidazo[1,2-b]pyridazin-2-yl]methyl]-1,2,5-oxadiazole-3-carboxamide] |  | 0.4 to 4 |  | 
O=C(N[C@H](c1cn2ncc(CC3CCCNC3=O)cc2n1)C1CCC(F)(F)CC1)c1nonc1C1CC1 (single isomer, unassigned) [Example 23, 4-Cyclopropyl-N—[(S)-(4,4-difluorocyclohexyl)-[7-[[(3R*)-2-oxo-3-piperidyl]methyl]imidazo[1,2-b]pyridazin-2-yl]methyl]-1,2,5-oxadiazole-3-carboxamide] |  | 0.4 to 4 |  | 
CC[C@H]1C[C@@H](Cc2cnn3cc([C@@H](NC(=O)c4nonc4C4CC4)C4CCC(F)(F)CC4)nc3c2)C(=O)N1 (relative stereo) [Example 92, 4-Cyclopropyl-N—[(S)-(4,4-difluorocyclohexyl)-[7-[[(3R*,5S*)-5-ethyl-2-oxo-pyrrolidin-3-yl]methyl]imidazo[1,2-b]pyridazin-2-yl]methyl]-1,2,5-oxadiazole-3-carboxamide] |  | > 4 |  | 
CC[C@H]1C[C@H](Cc2cnn3cc([C@@H](NC(=O)c4nonc4C4CC4)C4CCC(F)(F)CC4)nc3c2)C(=O)N1 (relative stereo) [Example 91, 4-Cyclopropyl-N—[(S)-(4,4-difluorocyclohexyl)-[7-[[(3S*,5S*)-5-ethyl-2-oxo-pyrrolidin-3-yl]methyl]imidazo[1,2-b]pyridazin-2-yl]methyl]-1,2,5-oxadiazole-3-carboxamide] |  | 0.4 to 4 |  | 
CC(C)(CC[C@H](NC(=O)c1nonc1C1CC1)c1cn2ncc([C@@H](O)[C@H]3C[C@@H](C(F)(F)F)NC3=O)cc2n1)C(F)(F)F (relative stereo) [Example 66, 4-Cyclopropyl-N—((S)-5,5,5-trifluoro-1-(7-((S*)-hydroxy((3R*,5S)-2-oxo-5-(trifluoromethyl)pyrrolidin-3-yl)methyl)imidazo[1,2-b]pyridazin-2-yl)-4,4-dimethylpentyl)-1,2,5-oxadiazole-3-carboxamide] | 0.4 to 4 |  |  | 
CC[C@@H]1C[C@@H](Cc2cnn3cc([C@@H](NC(=O)c4nonc4C4CC4)C4CCC(F)(F)CC4)nc3c2)C(=O)N1 (relative stereo) [Example 90, 4-Cyclopropyl-N—[(S)-(4,4-difluorocyclohexyl)-[7-[[(3R*,5R*)-5-ethyl-2-oxo-pyrrolidin-3-yl]methyl]imidazo[1,2-b]pyridazin-2-yl]methyl]-1,2,5-oxadiazole-3-carboxamide] | < 0.4 |  |  | 
O=C(N[C@H](c1cn2ncc(C[C@H]3C[C@H](C(F)(F)F)CNC3=O)cc2n1)C1CCC(F)(F)CC1)c1nonc1C1CC1 (relative stereo) [Example 34, 4-Cyclopropyl-N—((S)-(4,4-difluorocyclohexyl)(7-(((3R*,5S*)-2-oxo-5-(trifluoromethyl)piperidin-3-yl)methyl)imidazo[1,2-b]pyridazin-2-yl)methyl)-1,2,5-oxadiazole-3-carboxamide] | > 4 |  |  | 
